# pIC50: −log10 of the molar value.
# Tests used:
# Cdk4/CyclinD1 = Cdk4/CyclinD1 (Homo sapiens (Human), UniProt P11802); assay: Cdk4 kinase inhibition assay with recombinant Cdk4/CyclinD1, Rb substrate, [33P]-ATP filter plate; assay type: biochemical; settings: 25 μM ATP, read-out: Cdk 4 IC50
# In short: (§1)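 Recombinant Cdk4/CyclinD1 or Cdk6/CyclinD3 phosphorylated Rb protein with [33P]-ATP for 1 h at room temperature. Protein was TCA-precipitated on filter plates and bound radioactivity counted. IC50 by nonlinear regression.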
# Cdk6/CyclinD3 = Cdk6/CyclinD3 (Homo sapiens (Human), UniProt Q00534); assay: Cdk6 kinase inhibition assay with recombinant Cdk6/CyclinD3, Rb substrate, [33P]-ATP filter plate; assay type: biochemical; settings: 25 μM ATP, read-out: Cdk 6 IC50
# Chain of Cdk6/CyclinD3 (Q00534 whole entry): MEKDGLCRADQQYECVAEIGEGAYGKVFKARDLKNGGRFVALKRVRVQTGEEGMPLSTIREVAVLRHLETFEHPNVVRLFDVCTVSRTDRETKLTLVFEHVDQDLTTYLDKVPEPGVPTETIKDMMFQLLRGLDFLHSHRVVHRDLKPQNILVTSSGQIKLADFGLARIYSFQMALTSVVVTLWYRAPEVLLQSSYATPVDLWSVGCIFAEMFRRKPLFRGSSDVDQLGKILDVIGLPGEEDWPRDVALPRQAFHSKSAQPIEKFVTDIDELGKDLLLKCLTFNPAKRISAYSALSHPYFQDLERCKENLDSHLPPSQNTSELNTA
# Chain of Cdk6/CyclinD3 (P30281 whole entry partner): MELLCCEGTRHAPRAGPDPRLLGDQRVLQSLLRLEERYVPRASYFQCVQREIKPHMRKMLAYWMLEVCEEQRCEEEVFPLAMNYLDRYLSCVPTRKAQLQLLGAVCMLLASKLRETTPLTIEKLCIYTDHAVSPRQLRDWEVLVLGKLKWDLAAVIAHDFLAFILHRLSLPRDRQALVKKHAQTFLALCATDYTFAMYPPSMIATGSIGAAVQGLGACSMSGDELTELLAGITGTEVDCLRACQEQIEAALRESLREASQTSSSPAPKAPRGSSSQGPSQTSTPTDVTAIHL
# In short: as §1
# Chain of Cdk4/CyclinD1 (P11802 whole entry): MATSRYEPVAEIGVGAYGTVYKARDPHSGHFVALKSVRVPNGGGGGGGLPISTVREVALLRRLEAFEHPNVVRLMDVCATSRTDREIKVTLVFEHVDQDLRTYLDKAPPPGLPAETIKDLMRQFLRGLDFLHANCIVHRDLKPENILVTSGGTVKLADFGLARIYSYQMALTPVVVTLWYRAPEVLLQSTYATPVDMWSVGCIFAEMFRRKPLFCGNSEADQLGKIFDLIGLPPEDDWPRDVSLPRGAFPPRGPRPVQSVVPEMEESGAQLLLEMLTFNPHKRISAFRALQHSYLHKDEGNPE
# Chain of Cdk4/CyclinD1 (P24385 whole entry partner): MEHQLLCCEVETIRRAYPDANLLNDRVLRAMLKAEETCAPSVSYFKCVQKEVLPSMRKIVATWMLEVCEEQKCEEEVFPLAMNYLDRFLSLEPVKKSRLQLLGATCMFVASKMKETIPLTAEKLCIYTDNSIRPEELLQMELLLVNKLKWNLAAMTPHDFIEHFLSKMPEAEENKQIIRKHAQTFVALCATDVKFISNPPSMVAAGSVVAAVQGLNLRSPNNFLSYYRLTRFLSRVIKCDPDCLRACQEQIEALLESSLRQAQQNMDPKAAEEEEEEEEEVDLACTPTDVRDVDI
SMILES,pIC50 (Cdk4/CyclinD1),pIC50 (Cdk6/CyclinD3)
CC[C@@H](C)n1c2cnccc2c2cnc(Nc3ccc(N4CCNCC4)cn3)nc21 [Example 320],8.44,7.96
"O=C1CN(Cc2ccc(Nc3ncc4c5ccncc5n(C5CCCC5)c4n3)nc2)CCN1 [Example 225, 4-((6-((9-cyclopentyl-9H-pyrido[4′,3′:4,5]pyrrolo[2,3-d]pyrimidin-2-yl)amino)-3-pyridinyl)methyl)-2-piperazinone]",8.40,8.52
"CCC(CC)n1c2cnccc2c2cnc(Nc3ccc(N4CCNCC4)cn3)nc21 [Example 161, 9-(1-Ethylpropyl)-N-(5-(1-piperazinyl)-2-pyridinyl)-9H-pyrido[4′,3′:4,5]pyrrolo[2,3-d]pyrimidin-2-amine]",8.44,7.80
CCNC1CCN(c2ccc(Nc3ncc4c5ccncc5n(C5CCCC5)c4n3)nc2)CC1 [Example 464],8.70,8.51
O=C(O)CNC1CCN(c2ccc(Nc3ncc4c5ccncc5n(C5CCCC5)c4n3)nn2)CC1 [Example 478],8.70,8.24
C[C@H](CO)Nc1ccc(Nc2ncc3c4ccncc4n(C4CCCC4)c3n2)nn1 [Example 295],8.17,7.47
"c1cc2c3cnc(Nc4ccc(N5CCNCC5)cn4)nc3n(C3CCCCCC3)c2cn1 [Example 34, (9-Cycloheptyl-9H-pyrido[4′,3′:4,5]pyrrolo[2,3-d]pyrimidin-2-yl)-(5-piperazin-1-yl-pyridin-2-yl)-amine]",7.96,7.68
OC1CCN(C2CCN(c3ccc(Nc4ncc5c6ccncc6n(C6CCCC6)c5n4)nc3)CC2)CC1 [Example 463],7.82,7.74
"Oc1ccc(-c2ccc(Nc3ncc4c5ccncc5n(C5CCCC5)c4n3)nn2)cn1 [Example 266, 5-(6-((9-Cyclopentyl-9H-pyrido[4′,3′:4,5]pyrrolo[2,3-d]pyrimidin-2-yl)amino)-3-pyridazinyl)-2-pyridinol]",8.51,8.19
O[C@@H]1CCCN(c2ccc(Nc3ncc4c5ccncc5n(C5CCCC5)c4n3)nn2)C1 [Example 104],8.48,7.85
CCCNC1CCN(c2ccc(Nc3ncc4c5ccncc5n(C5CCCC5)c4n3)nc2)CC1 [Example 466],8.33,7.85
"N#Cc1ccc2c3cnc(Nc4ccc(N5CCNCC5)cn4)nc3n(C3CCCC3)c2c1 [Example 41, 9-Cyclopentyl-2-(5-piperazin-1-yl-pyridin-2-ylamino)-9H-pyrimido[4,5-b]indole-7-carbonitrile]",8.57,8.14
"c1cc2c3cnc(Nc4ccc(N5CCNCC5)cn4)nc3n(CC3CCCCC3)c2cn1 [Example 32, (9-Cyclohexylmethyl-9H-pyrido[4′,3′:4,5]pyrrolo[2,3-d]pyrimidin-2-yl)-(5-piperazin-1-yl-pyridin-2-yl)-amine]",7.89,7.52
C[C@@H](CO)Nc1ccc(Nc2ncc3c4ccncc4n(C4CCCC4)c3n2)nn1 [Example 296],8.26,7.85
c1cc2c3cnc(Nc4ccc(N5CCC(N6CCCC6)CC5)nn4)nc3n(C3CCCC3)c2cn1 [Example 437],7.64,7.52
"Fc1nccc2c3cnc(Nc4ccc(N5CCNCC5)cn4)nc3n(C3CCCC3)c12 [Example 57, 9-Cyclopentyl-8-fluoro-N-(5-(1-piperazinyl)-2-pyridinyl)-9H-pyrido[4′,3′:4,5]pyrrolo[2,3-d]pyrimidin-2-amine]",8.70,7.77
"CCOC(=O)CN1CCN(Cc2ccc(Nc3ncc4c5ccncc5n(C5CCCC5)c4n3)nc2)CC1 [Example 219, Ethyl (4-((6-((9-cyclopentyl-9H-pyrido[4′,3′:4,5]pyrrolo[2,3-d]pyrimidin-2-yl)amino)-3-pyridinyl)methyl)-1-piperazinyl)acetate]",8.28,7.96
C[C@@H](O)Cn1c2cnccc2c2cnc(Nc3ccc(N4CCC(N(C)C)CC4)cn3)nc21 [Example 357],6.53,6.50
CN(C)CCNC1CCN(c2ccc(Nc3ncc4c5ccncc5n(C5CCCC5)c4n3)nn2)CC1 [Example 480],8.31,8.00
O[C@H]1CCN(c2ccc(Nc3ncc4c5ccccc5n(C5CCCC5)c4n3)nc2)C1 [Example 305],6.83,6.95
C[C@@H](CO)NC1CCN(c2ccc(Nc3ncc4c5ccncc5n(C5CCCC5)c4n3)nn2)CC1 [Example 442],8.82,7.89
O[C@@H]1CCN(c2ccc(Nc3ncc4c5ccccc5n(C5CCCC5)c4n3)nc2)C1 [Example 304],7.34,7.57
CN(CC(=O)O)C1CCN(c2ccc(Nc3ncc4c5ccncc5n(C5CCCC5)c4n3)nc2)CC1 [Example 471],8.39,7.74

SMILES,pIC50 (Cdk4/CyclinD1),pIC50 (Cdk6/CyclinD3)
c1cc2c3cnc(Nc4ccc(N5CCNCC5)nn4)nc3n(C3CCC3)c2cn1 [Example 346],7.27,7.80
"C1=C(c2ccc(Nc3ncc4c5ccncc5n(C5CCCC5)c4n3)nn2)CCNC1 [Example 255, 9-Cyclopentyl-N-(6-(1,2,3,6-tetrahydro-4-pyridinyl)-3-pyridazinyl)-9H-pyrido[4′,3′:4.5]pyrrolo[2,3-d]pyrimidin-2-amine]",8.25,7.22
"COc1ccc(-c2ccc(Nc3ncc4c5ccncc5n(C5CCCC5)c4n3)nn2)cn1 [Example 261, 9-Cyclopentyl-N-(6-(6-methoxy-3-pyridinyl)-3-pyridazinyl)-9H-pyrido[4′,3′:4,5]pyrrolo[2,3-d]pyrimidin-2-amine]",6.63,6.44
"c1cc2c3cnc(Nc4ccc(N5CCNCC5)cn4)nc3n(C3CC4CCC3C4)c2cn1 (centres unmarked) [Example 24, (9-Bicyclo[2.2.1]hept-2-yl-9H-pyrido[4′,3′:4,5]pyrrolo[2,3-d]pyrimidin-2-yl)-(5-piperazin-1-yl-pyridin-2-yl)-amine]",9.03,8.29
OCC(CO)NC1CCN(c2ccc(Nc3ncc4c5ccncc5n(C5CCCC5)c4n3)nn2)CC1 [Example 445],8.66,8.20
CCN(CCO)C1CCN(c2ccc(Nc3ncc4c5ccncc5n(C5CCCC5)c4n3)nc2)CC1 [Example 473],8.01,7.55
CN(C)C1CCN(c2ccc(Nc3ncc4c5ccccc5n(C5CCCC5)c4n3)nn2)CC1 [Example 300],7.66,7.32
OCCCNC1CCN(c2ccc(Nc3ncc4c5ccncc5n(C5CCCC5)c4n3)nn2)CC1 [Example 453],8.34,7.89
C[C@H](O)CNC1CCN(c2ccc(Nc3ncc4c5ccncc5n(C5CCCC5)c4n3)nn2)CC1 [Example 439],8.43,8.24
CN(C)C1CCN(c2ccc(Nc3ncc4c5ccccc5n(C5CCCC5)c4n3)nc2)CC1 [Example 309],7.96,7.92
CN(C)CCN(C)C1CCN(c2ccc(Nc3ncc4c5ccncc5n(C5CCCC5)c4n3)nn2)CC1 [Example 479],8.10,7.77
C[C@@H](O)CNC1CCN(c2ccc(Nc3ncc4c5ccncc5n(C5CCCC5)c4n3)nn2)CC1 [Example 441],8.77,8.42
"CN1CCN(c2ccc(Nc3ncc4c5ccncc5n(C5CCCC5)c4n3)nc2)CC1 [Example 2, 9-Cyclopentyl-N-(5-(1-(N^4-methylpiperazinyl))-2-pyridinyl)-9H-pyrido-[4′,3′:4,5]pyrrolo[2,3-d]pyrimidin-2-amine]",7.89,8.00
"CN(C)C1CCN(c2ccc(Nc3ncc4c5ccnc(Cl)c5n(C5CCCC5)c4n3)nc2)CC1 [Example 153, 8-Chloro-9-cyclopentyl-N-(5-(4-(dimethylamino)-1-piperidinyl)-2-pyridinyl)-9H-pyrido[4′,3′:4,5]pyrrolo[2,3-d]pyrimidin-2-amine]",9.00,8.55
O=S1(=O)CCN(c2ccc(Nc3ncc4c5ccncc5n(C5CCCC5)c4n3)nc2)CC1 [Example 66],8.27,7.14
"COc1nccc2c3cnc(Nc4ccc(N5CCNCC5)cn4)nc3n(C3CCCC3)c12 [Example 52, 9-cyclopentyl-8-(methyloxy)-N-(5-(1-piperazinyl)-2-pyridinyl)-9H-pyrido[4′,3′:4,5]-pyrrolo[2,3-d]pyrimidin-2-amine]",7.92,7.66
OC[C@@H](O)CNC1CCN(c2ccc(Nc3ncc4c5ccncc5n(C5CCCC5)c4n3)nn2)CC1 [Example 481],8.10,7.92
"Oc1nccc2c3cnc(Nc4ccc(CN5CCNCC5)cn4)nc3n(C3CCCC3)c12 [Example 214, 9-cyclopentyl-2-((5-(1-piperazinylmethyl)-2-pyridinyl)amino)-9H-pyrido[4′,3′:4,5]pyrrolo[2,3-d]pyrimidin-8-ol]",7.85,7.68
C[C@H](CO)NC1CCN(c2ccc(Nc3ncc4c5ccncc5n(C5CCCC5)c4n3)nn2)CC1 [Example 444],8.72,7.96
COCCn1c2cnccc2c2cnc(Nc3ccc(N4CCNCC4)nn3)nc21 [Example 313],6.47,6.40
"Oc1cc2c3cnc(Nc4ccc(N5CCNCC5)cn4)nc3n(C3CCCC3)c2cn1 [Example 43, 9-Cyclopentyl-2-(5-piperazin-1-yl-pyridin-2-ylamino)-9H-pyrido[4′,3′:4,5]pyrrolo[2,3-d]pyrimidin-6-ol]",6.87,6.66
"CCC(C)(C)n1c2cnccc2c2cnc(Nc3ccc(N4CCC(N(C)C)CC4)nn3)nc21 [Example 156, N-(6-(4-(dimethylamino)-1-piperidinyl)-3-pyridazinyl)-9-(1,1-dimethylpropyl)-9H-pyrido[4′,3′:4,5]pyrrolo[2,3-d]pyrimidin-2-amine]",8.15,7.85
CC[C@@H](C)n1c2cnccc2c2cnc(Nc3ccc(N4CCN[C@@H](C)C4)cn3)nc21 [Example 321],8.15,7.96

# — patent publication US8841312B2, “Fused pyridine, pyrimidine and triazine compounds as cell cycle inhibitors” (Amgen Inc., priority 2007, dated 2014)
